According to patent publication US20250066345A1, “COMPOSITIONS AND METHODS OF USE TO TREAT 12-LIPOXYGENASE (12-LOX) MEDIATED DISEASES” (VERALOX THERAPEUTICS, priority 2021, published 2025):
pIC50: −log10 of the molar value.

Assays:
12-LOX = 12-LOX (Homo sapiens (Human), UniProt P18054); assay: 12-LOX IC50 determination, UV-Vis assay with arachidonic acid substrate; assay type: biochemical; details: 30 nM 12-LOX, 50 μM AA, absorbance of 12-HPETE at 234 nm
Method: (§1) The compounds were evaluated for inhibition of 12-LOX, as well as selectivity by measuring inhibition against 15-LOX for some compounds, using a UV-Vis assay. Arachidonic acid (AA) was used as a substrate for 12-LOX and 15-LOX. ML355 was used as the control inhibitor for 12-LOX. ML351 (5-(Methylamino)-2-(1-naphthalenyl)-4-oxazolecarbonitrile) was used as the control inhibitor for 15-LOX.
(§2) Reaction buffers used for the lipoxygenase assay were as follows: 25 mM HEPES (pH 7.5), with 0.01% Triton X-100. 1 mM 12-HPETE or 1 mM 15-HPETE stock solution was prepared in 25 mM HEPES with 0.01% Triton X-100.
The standard curve of 12-HPETE was made by serial dilution of 0, 6.25, 12.5, 25, 50, 75 and 100 μM, and the final reaction volume in 96 Well Clear Flat Bottom UV-Transparent Microplate is 100 μL. The absorbance of the 12-HPETE at each concentration was measured at 234 nm.
(§3) IC50 values were obtained by determining the % inhibition at various inhibitor concentrations. The final concentrations of the control inhibitors and test compounds in the IC50 determination assay are 0, 0.03, 0.1, 0.3, 1, 3, 10 and 20 μM. The final concentration of DMSO in the assay is 0.05%.
12-LOX IC50 determination. The 12-LOX enzyme and AA were diluted in the HEPES buffer to 120 nM and 200 μM, respectively. Pre-incubation 50 μL of indicated test compounds and 25 μL 120 nM enzyme at room temperature for 5 min. The reaction is started by adding 25 μL 200 μM AA. After a short spin (1000 rpm, 15 s), incubate the reaction system for 5 min. The blank control was set by adding 25 μL HEPES to 50 μL of control inhibitor compound (MHL355) and 25 μL 200 μM AA. The final concentrations of 12-LOX enzyme and AA were 30 nM and 50 μM, respectively. The absorbance of the 12-HPETE at 234 nm was measured.
(§4) The IC50 value was calculated by using GraphPad Prism 8.0.2.
(§5) The IC50 values are calculated with remaining activity (%) and logarithm of inhibitor concentrations.
(§6) Remaining Activity (%)=OD value inhibitor/OD value vehicle×100

15-LOX = 15-LOX (Homo sapiens (Human), UniProt P16050); assay: 15-LOX IC50 determination, UV-Vis assay with arachidonic acid substrate (selectivity); assay type: biochemical; details: selectivity for 12-LOX over 15-LOX; 120 nM 15-LOX, AA substrate
15-LOX, sequence (P16050 whole entry): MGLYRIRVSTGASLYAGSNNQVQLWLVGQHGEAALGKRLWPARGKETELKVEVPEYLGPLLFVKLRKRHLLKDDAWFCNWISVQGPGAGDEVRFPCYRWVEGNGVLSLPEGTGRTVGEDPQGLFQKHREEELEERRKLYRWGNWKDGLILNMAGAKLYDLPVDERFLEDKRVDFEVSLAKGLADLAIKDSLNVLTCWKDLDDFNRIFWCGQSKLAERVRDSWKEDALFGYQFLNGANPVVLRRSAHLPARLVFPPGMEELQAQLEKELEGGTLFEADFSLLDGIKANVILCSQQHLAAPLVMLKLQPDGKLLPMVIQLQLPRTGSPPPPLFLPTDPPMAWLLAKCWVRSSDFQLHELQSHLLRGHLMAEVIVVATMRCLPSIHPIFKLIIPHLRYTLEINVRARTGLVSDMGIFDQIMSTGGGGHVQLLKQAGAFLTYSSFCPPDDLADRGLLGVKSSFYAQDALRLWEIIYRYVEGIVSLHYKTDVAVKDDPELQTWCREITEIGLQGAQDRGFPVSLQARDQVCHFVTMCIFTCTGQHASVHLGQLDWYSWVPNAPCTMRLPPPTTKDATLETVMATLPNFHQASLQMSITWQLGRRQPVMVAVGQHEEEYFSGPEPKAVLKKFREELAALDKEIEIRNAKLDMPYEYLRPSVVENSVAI
Method: as §1, §2
The standard curve of 15-HPETE was made by serial dilution of 0, 3.125, 6.25, 12.5, 25, 50 and 100 μM, and the final reaction volume in 96 Well Clear Flat Bottom UV-Transparent Microplate is 100 μL. The absorbance of the […] at each concentration was measured at 234 nm.
as §3
15-LOX IC50 determination. The 15-LOX enzyme and AA were diluted in the HEPES buffer to 480 nM and 200 μM, respectively. Pre-incubation 50 μL of indicated test compounds and 25 μL 480 nM enzyme at room temperature for 5 min. The reaction is started by adding 25 μL 200 μM AA. After a short spin (1000 rpm, 15 s), incubate the reaction system for 3 min. The blank control was set by adding 25 μL HEPES to 50 μL of control inhibitor compound (MHL355) and 25 μL 200 μM AA. The final concentrations of 15-LOX enzyme and AA were 120 nM and 50 µM, respectively. The absorbance of the 15-HPETE at 234 nm was measured. The assay was performed in duplicate.
as §4, §5, §6

12-LOX, sequence (P18054 whole entry): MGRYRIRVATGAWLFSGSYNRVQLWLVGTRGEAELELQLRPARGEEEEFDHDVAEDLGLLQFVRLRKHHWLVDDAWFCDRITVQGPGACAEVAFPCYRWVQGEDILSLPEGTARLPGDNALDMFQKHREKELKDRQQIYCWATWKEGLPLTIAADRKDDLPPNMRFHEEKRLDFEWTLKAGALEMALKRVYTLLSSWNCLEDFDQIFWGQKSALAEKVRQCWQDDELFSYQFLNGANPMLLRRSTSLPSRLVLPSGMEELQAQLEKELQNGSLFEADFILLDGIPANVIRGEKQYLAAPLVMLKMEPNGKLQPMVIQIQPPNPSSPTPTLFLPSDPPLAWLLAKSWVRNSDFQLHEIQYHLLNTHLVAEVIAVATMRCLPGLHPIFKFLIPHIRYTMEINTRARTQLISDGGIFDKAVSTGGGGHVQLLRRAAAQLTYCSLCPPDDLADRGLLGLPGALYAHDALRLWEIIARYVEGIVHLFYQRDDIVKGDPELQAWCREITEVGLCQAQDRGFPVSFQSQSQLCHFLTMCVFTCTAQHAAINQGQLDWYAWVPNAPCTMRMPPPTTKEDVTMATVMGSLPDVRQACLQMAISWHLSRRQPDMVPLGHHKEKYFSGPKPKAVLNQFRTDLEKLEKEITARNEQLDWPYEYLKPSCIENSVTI

Row | pIC50 (12-LOX) | Selectivity over 15-LOX (15-LOX) | SMILES
1 | > 6.60 | >50-fold | COc1cccc(CNc2ccc(S(=O)(=O)Nc3nc(-c4ccc(F)c(Cl)c4)c(CO)s3)nc2)c1O [Compound I-24]
2 | > 6.60 | >50-fold | COc1cccc(CNc2cnc(S(=O)(=O)Nc3nc(-c4ccc(F)c(Cl)c4)c(F)s3)c(C)c2)c1O [Compound I-16]
3 | > 6.60 | >50-fold | COc1cccc(CNc2ccc(S(=O)(=O)Nc3nc(-c4ccc(C(F)(F)F)c(F)c4)cs3)nc2)c1O [Compound I-12]
4 | > 6.60 | >50-fold | COc1cccc(CNc2ccc(S(=O)(=O)Nc3nc4c(ccc5ccccc54)s3)nc2)c1O [Compound I-13]
5 | 6.00 to 6.60 | >50-fold | COc1cccc(CNc2ccc(S(=O)(=O)Nc3nc(-c4ccc(F)c(Cl)c4)cs3)nc2)c1O [Compound I-9]
6 | > 6.60 | >20-fold | COc1cccc(CNc2cnc(S(=O)(=O)Nc3nc(-c4ccc(F)c(Cl)c4)c(F)s3)c(C(F)(F)F)c2)c1O [Compound I-17]
7 | 6.00 to 6.60 | >50-fold | [2H]C([2H])([2H])Oc1cccc(CNc2cnc(S(=O)(=O)Nc3nc(-c4ccc(F)c(F)c4)c(F)s3)c(C)c2)c1O [Compound I-50]
8 | > 6.60 | >50-fold | [2H]C([2H])([2H])Oc1cccc(CNc2ccc(S(=O)(=O)Nc3nc(-c4ccc(Cl)c(F)c4)c(F)s3)nc2)c1O [Compound I-49]
9 | > 6.60 | >50-fold | COc1cccc(CNc2cnc(S(=O)(=O)Nc3nc(-c4ccc(Cl)c(F)c4)c(F)s3)c(C)c2)c1O [Compound I-23]
10 | < 6.00 | <10-fold | COc1cccc(CNc2cnc(S(=O)(=O)Nc3nc(-c4ccc(F)c(Cl)c4)c(F)s3)cc2C)c1O [Compound I-15]
11 | < 6.00 | <20-fold | [2H]C([2H])([2H])Oc1cccc(CNc2cnc(S(=O)(=O)Nc3nc(-c4ccc(Cl)c(F)c4)c(F)s3)c(C([2H])([2H])[2H])c2)c1O [Compound I-47]
12 | > 6.60 | >50-fold | COc1cccc(CNc2cnc(S(=O)(=O)Nc3nc(-c4ccc(F)c(Cl)c4)cs3)c(C)c2)c1O [Compound I-41]
13 | > 6.60 | >50-fold | COc1cccc(CNc2ccc(S(=O)(=O)Nc3nc(-c4ccc(Cl)c(F)c4)c(F)s3)nc2)c1O [Compound I-2]
14 | > 6.60 | >50-fold | COc1cccc(CNc2ccc(S(=O)(=O)Nc3nc(-c4ccc(C(C)C)cc4)cs3)nc2)c1O [Compound I-4]
15 | > 6.60 | >50-fold | COc1cccc(CNc2ccc(S(=O)(=O)Nc3nc(-c4ccc(Cl)c(F)c4)cs3)nc2)c1O [Compound I-8, N-(4-(4-chloro-3-fluorophenyl)thiazol-2-yl)-5-((2-hydroxy-3-methoxybenzyl)amino)pyridine-2-sulfonamide]
16 | > 6.60 | >50-fold | COc1cccc(CNc2ccc(S(=O)(=O)Nc3nc(-c4ccc(F)c(Cl)c4)c(F)s3)nc2)c1O [Compound I-1]
17 | < 6.00 | – | COc1cccc(CN(C)c2cnc(S(=O)(=O)Nc3nc(-c4ccc(F)c(F)c4)cs3)c(C)c2)c1O [Compound I-19]
18 | < 6.00 | <10-fold | COc1cccc(CNc2cnc(S(=O)(=O)Nc3nc(-c4ccc(F)c(F)c4)c(F)s3)c(C(F)(F)F)c2)c1O [Compound I-22]

Row | pIC50 (12-LOX) | Selectivity over 15-LOX (15-LOX) | SMILES
19 | < 6.00 | – | COc1cccc(CNc2ccc(S(=O)(=O)Nc3nc4ccccc4s3)nc2)c1O [Compound I-10]
20 | > 6.60 | >50-fold | COc1cccc(CNc2ccc(S(=O)(=O)Nc3nc(-c4ccc(C(F)(F)F)c(F)c4)c(F)s3)nc2)c1O [Compound I-25]
21 | > 6.60 | >50-fold | COc1cccc(CNc2cnc(S(=O)(=O)Nc3nc(-c4ccc(Cl)c(F)c4)cs3)c(C)c2)c1O [Compound I-40]
22 | > 6.60 | >20-fold | COc1cccc(CNc2ccc(S(=O)(=O)Nc3nc(-c4ccc(C(C)C)cc4)c(F)s3)nc2)c1O [Compound I-3]
23 | < 6.00 | <20-fold | Cc1cc(NCc2cccc(OC(F)(F)F)c2O)cnc1S(=O)(=O)Nc1nc(-c2ccc(F)c(Cl)c2)c(F)s1 [Compound I-45]
24 | > 6.60 | >50-fold | COc1cccc(CNc2ccc(S(=O)(=O)Nc3nc(-c4ccc(F)c(F)c4)c(F)s3)nc2)c1O [Compound I-6]
25 | > 6.60 | >50-fold | [2H]C([2H])([2H])Oc1cccc(CNc2cnc(S(=O)(=O)Nc3nc(-c4ccc(Cl)c(F)c4)c(F)s3)c(C)c2)c1O [Compound I-48]
26 | > 6.60 | >50-fold | COc1cccc(CNc2ccc(S(=O)(=O)Nc3nc(-c4ccc(F)c(F)c4)cs3)nc2)c1O [Compound I-7]
27 | > 6.60 | >50-fold | [2H]C([2H])([2H])Oc1cccc(CNc2cnc(S(=O)(=O)Nc3nc(-c4ccc(F)c(Cl)c4)c(F)s3)c(C)c2)c1O [Compound I-51]
28 | > 6.60 | >50-fold | COc1cccc(CNc2cnc(S(=O)(=O)Nc3nc(-c4ccc(F)c(F)c4)cs3)c(C)c2)c1O [Compound I-39]
29 | < 6.00 | <20-fold | COc1cccc(CNc2cnc(S(=O)(=O)Nc3nc(-c4ccc(F)c(Cl)c4)c(F)s3)c(C3CC3)c2)c1O [Compound I-43]
30 | > 6.60 | >50-fold | COc1cccc(CNc2cnc(S(=O)(=O)Nc3nc(-c4ccc(F)c(F)c4)c(F)s3)c(C)c2)c1O [Compound I-18, N-(4-(3,4-difluorophenyl)-5-fluorothiazol-2-yl)-5-((2-hydroxy-3-methoxybenzyl)amino)-3-methylpyridine-2-sulfonamide]
31 | 6.00 to 6.60 | ~10-fold | COc1cccc(CNc2ccc(S(=O)(=O)Nc3nc(-c4ccc(F)c(Cl)c4)c(F)s3)nc2C)c1O [Compound I-14]
32 | 6.00 to 6.60 | >20-fold | COc1cccc(CN(C)c2ccc(S(=O)(=O)Nc3nc(-c4ccc(F)c(F)c4)c(F)s3)nc2)c1O [Compound I-11]
33 | < 6.00 | <20-fold | CCOc1cccc(CNc2cnc(S(=O)(=O)Nc3nc(-c4ccc(F)c(Cl)c4)c(F)s3)c(C)c2)c1O [Compound I-46]
34 | > 6.60 | >50-fold | COc1cccc(CNc2ccc(S(=O)(=O)Nc3nc(-c4ccc(C5CC5)cc4)cs3)nc2)c1O [Compound I-5]
35 | > 6.60 | >50-fold | COc1cccc(CNc2cnc(S(=O)(=O)Nc3nc(-c4ccc(F)c(Cl)c4)c(F)s3)c(-c3ccccc3)c2)c1O [Compound I-42]
